Source: ChEMBL document CHEMBL3039007, “Structure-based identification of OATP1B1/3 inhibitors” (Mol Pharmacol, 2013)
“And” between values parts separate entries of the source, which are not always exact repeats. Identical values can stand only once.

Legend:
[1] = molecular target: T1, Solute carrier organic anion transporter family member 1B3 (Homo sapiens, UniProt Q9NPD5); details: chinese hamster, cho, 10 µM
T1 sequence (Q9NPD5 whole entry): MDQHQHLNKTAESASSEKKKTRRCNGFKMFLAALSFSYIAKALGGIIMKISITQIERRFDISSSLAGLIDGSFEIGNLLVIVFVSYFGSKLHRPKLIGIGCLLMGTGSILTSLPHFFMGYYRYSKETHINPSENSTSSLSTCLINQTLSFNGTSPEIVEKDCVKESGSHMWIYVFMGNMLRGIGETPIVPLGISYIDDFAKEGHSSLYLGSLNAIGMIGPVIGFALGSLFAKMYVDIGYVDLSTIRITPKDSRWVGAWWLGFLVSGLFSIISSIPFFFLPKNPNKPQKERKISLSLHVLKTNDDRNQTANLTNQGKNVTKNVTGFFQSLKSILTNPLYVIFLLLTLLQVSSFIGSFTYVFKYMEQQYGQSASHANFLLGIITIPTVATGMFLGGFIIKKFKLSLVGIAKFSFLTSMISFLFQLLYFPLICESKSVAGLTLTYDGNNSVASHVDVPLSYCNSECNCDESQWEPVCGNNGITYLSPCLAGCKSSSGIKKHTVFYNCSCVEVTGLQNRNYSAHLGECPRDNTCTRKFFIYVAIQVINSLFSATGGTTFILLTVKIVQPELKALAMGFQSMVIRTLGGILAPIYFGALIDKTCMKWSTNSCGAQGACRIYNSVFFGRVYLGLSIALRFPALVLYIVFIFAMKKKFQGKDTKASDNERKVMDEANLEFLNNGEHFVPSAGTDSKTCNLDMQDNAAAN

[2] = molecular target: T2, Solute carrier organic anion transporter family member 1B1 (Homo sapiens, UniProt Q9Y6L6); details: chinese hamster, cho, 10 µM
T2 sequence (Q9Y6L6 whole entry): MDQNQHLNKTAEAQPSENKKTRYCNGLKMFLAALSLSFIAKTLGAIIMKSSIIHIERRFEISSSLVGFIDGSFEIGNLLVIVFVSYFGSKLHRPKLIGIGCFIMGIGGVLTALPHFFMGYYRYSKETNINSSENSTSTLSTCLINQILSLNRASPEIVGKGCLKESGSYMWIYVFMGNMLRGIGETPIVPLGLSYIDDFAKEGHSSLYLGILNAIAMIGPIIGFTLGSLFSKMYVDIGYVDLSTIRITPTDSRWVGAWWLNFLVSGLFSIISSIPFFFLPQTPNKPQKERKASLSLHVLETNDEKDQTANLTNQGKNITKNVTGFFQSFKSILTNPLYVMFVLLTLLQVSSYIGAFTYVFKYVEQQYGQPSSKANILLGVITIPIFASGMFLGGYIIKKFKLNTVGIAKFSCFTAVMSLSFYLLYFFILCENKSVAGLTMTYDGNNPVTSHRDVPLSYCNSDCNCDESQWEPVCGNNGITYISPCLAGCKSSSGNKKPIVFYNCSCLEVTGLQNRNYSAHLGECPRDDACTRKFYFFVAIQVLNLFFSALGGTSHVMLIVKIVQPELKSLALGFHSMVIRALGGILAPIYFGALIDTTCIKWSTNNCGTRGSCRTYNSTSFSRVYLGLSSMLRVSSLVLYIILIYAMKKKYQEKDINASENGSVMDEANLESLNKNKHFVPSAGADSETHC

Row | Structure (SMILES) | residual activity [1] | residual activity [2]
1 | CC(=O)O[C@H]1CC[C@@]2(C)[C@@H](CC[C@@H]3[C@@H]2CC[C@]2(C)[C@@H]4[C@H](C[C@@H]32)O[C@@]2(CCC(C)CO2)[C@H]4C)C1 (some centres not stated) | 107.6% | 112.3%
2 | C[C@H](CCC(=O)O)[C@H]1CC[C@H]2[C@@H]3CC[C@@H]4C[C@H](O)CC[C@]4(C)[C@H]3CC[C@]12C [LITHOCHOLIC ACID] | 60.21% | 6.612%
3 | COc1ccc(-c2coc3cc(O)ccc3c2=O)c(OC)c1O [KHRINONE E] | 96.23% | 85.61%
4 | Oc1cccc(O)c1 [RESORCINOL] | 104.2% | 89.71%
5 | C[C@H](CCC(=O)O)[C@H]1CC[C@H]2[C@@H]3[C@H](O)C[C@@H]4C[C@H](O)CC[C@]4(C)[C@H]3C[C@H](O)[C@]12C [CHOLIC ACID] | 75.03% | 99.52%
6 | COc1cc2c(cc1O)C(Cc1ccc(O)cc1)N(C)CC2 (configuration not stated) [METHYL COCLAURINE] | 94.46% | 96.63%
7 | CCOC(=O)c1c(C)cc(O)c(C)c1O [METHYLORSELLINIC ACID, ETHYL ESTER] | 105.6% | 76.13%
8 | CC[C@@]1(O)C[C@H](O[C@H]2C[C@H](N(C)C)[C@H](O)[C@H](C)O2)c2c(cc3c(c2O)C(=O)c2c(O)ccc(O)c2C3=O)[C@H]1C(=O)OC [PYRROMYCIN] | 81.89% | 90.45%
9 | CN(C)[C@@H]1C(O)=C(C(N)=O)C(=O)[C@@]2(O)C(O)=C3C(=O)c4c(O)ccc(Cl)c4[C@@H](O)[C@H]3C[C@@H]12.Cl [DEMECLOCYCLINE HYDROCHLORIDE] | 90.61% | 104.7%
10 | O=C(O)c1cc2ccccc2[nH]1 [INDOLE-2-CARBOXYLIC ACID] | 117.8% | 121.4%
11 | CN(C)C(=O)Oc1cccc([N+](C)(C)C)c1.[Br-] [NEOSTIGMINE BROMIDE] | 101.1% | 95.12%
12 | COc1cc(Cc2cnc(N)nc2N)cc(OC)c1OC [TRIMETHOPRIM] | 97.26% | 82.92%
13 | CN1C(=O)CC[C@H]1c1cccnc1 [COTININE] | 103% | 106.5%
14 | Nc1nc2ccc(OC(F)(F)F)cc2s1 [RILUZOLE] | 124.8% | 95.81%
15 | CCCCCC1C(=O)CCC1CC(=O)O (configuration not stated) [DIHYDROJASMONIC ACID] | 102.5% | 113.7%
16 | CC(=O)Oc1cc2c(c(C)c1OC(C)=O)CC=C1[C@]2(C)CC[C@]2(C)[C@@H]3C[C@](C)(C(=O)O)CC[C@]3(C)CC[C@@]12C | 13.7% | 47.56%
17 | COC(=O)[C@@H]1OC(=O)[C@H]2O[C@]23[C@]2(C)[C@H](O)C[C@H]4C(C)(C)[C@H](OC(C)=O)C[C@H](OC(C)=O)[C@]4(C)[C@H]2CC[C@@]13C | 83.24% | 70.09%
18 | Cn1c([N+](=O)[O-])cnc1COC(N)=O [RONIDAZOLE] | 88.05% | 103.6%
19 | CC(CCc1ccccc1)NC(C)C(O)c1ccc(O)cc1.Cl (configuration not stated) [NYLIDRIN HYDROCHLORIDE] | 116.9% | 112.1%
20 | NCC(CC(=O)O)c1ccc(Cl)s1 (configuration not stated) [4-AMINO-3- (5-CHLOROTHIEN-2-YL)BUTANOIC ACID] | 99.7% | 116.9%
21 | C[C@]12C=CC(=O)C=C1CC[C@@H]1[C@@H]2CC[C@]2(C)C(=O)CC[C@@H]12 [ANDROSTENEDONE] | 104% | 128.1%
22 | C[C@H](C(=O)O)[C@H]1CC[C@H]2[C@@H]3CC=C4C[C@@H](O)CC[C@]4(C)[C@H]3CC[C@]12C | 83.58% | 71.16%
23 | CC1=CC(=O)C(C(C)C)=CC1=O [THYMOQUINONE] | 98.24% | 126.4%

Row | Structure (SMILES) | residual activity [1] | residual activity [2]
24 | CN(C)CCCN1c2ccccc2CCc2ccccc21.Cl [IMIPRAMINE HYDROCHLORIDE] | 92.77% | 61.55%
25 | CC(C)Cn1c(=O)n(C)c(=O)c2[nH]cnc21 [ISOBUTYLMETHYLXANTHINE] | 85.37% and 74.61% | 102.2% and 126.3%
26 | CCCN(CCC)c1c([N+](=O)[O-])cc(C(F)(F)F)cc1[N+](=O)[O-] [TRIFLURALIN] | 102.7% | 93.6%
27 | COc1ccc(CN(CCN(C)C)c2ccccn2)cc1.O=C(O)/C=C\C(=O)O [PYRILAMINE MALEATE] | 101.4% | 68.75%
28 | COC(=O)C[C@H]1C(C)(C)[C@@H](OC(C)=O)[C@@H]2CC3C4CC(=O)O[C@@H](c5ccoc5)[C@]4(C)CCC3[C@@]1(C)C2=O (some centres not stated) [DIHYDROFISSINOLIDE] | 77.17% | 71.88%
29 | C=C[C@H]1CN2CC[C@H]1C[C@H]2[C@H](O)c1ccnc2ccc(OC)cc12.C=C[C@H]1CN2CC[C@H]1C[C@H]2[C@H](O)c1ccnc2ccc(OC)cc12.O.O.O=S(=O)(O)O [QUININE SULFATE] | 99.87% | 92.08%
30 | CC1=CC(=O)C2=C(C)CC[C@@H]3[C@H](OC(=O)[C@H]3C)[C@@H]12 [DESACETOXYMATRICARIN] | 118.5% | 129%
31 | CSCCC(NC=O)C(=O)NC(C)C(=O)O (configuration not stated) [N-FORMYLMETHIONYLALANINE] | 108.8% | 100.9%
32 | Nc1ccc(S(=O)(=O)Nc2ccc(Cl)nn2)cc1 [SULFACHLORPYRIDAZINE] | 95.19% | 134.9%
33 | OCC(O)C(O)C(O)C(O)C(O)CO (configuration not stated) [PERSEITOL] | 73.5% | 60.19%
34 | CNC(=O)CSP(=S)(OC)OC [DIMETHOATE] | 114.1% | 106.9%
35 | O=C1c2ccccc2-c2cccc3cccc1c23 [BENZANTHRONE] | 69.74% | 127.3%
36 | CN[C@@H](Cc1c[nH]c2ccccc12)C(=O)O [ABRINE] | 98.3% | 86.73%
37 | COc1ccc2c(c1)CC[C@@H]1[C@@H]2CC[C@]2(C)[C@@H](O)[C@H](O)C[C@@H]12 | 103.4% | 76.58%
38 | O=C(CCc1ccc(O)cc1)c1c(O)cc(O)cc1O[C@@H]1O[C@H](CO)[C@@H](O)[C@H](O)[C@H]1O [PHLORIZIN] | 106.3% | 50.32%
39 | C[C@]12CCC(=O)C=C1CC[C@@H]1[C@@H]2C(=O)C[C@@]2(C)[C@H]1CC[C@]2(O)C(=O)CO [CORTISONE] | 69.54% | 76.37%
40 | Cc1c(NC(C)C)c(=O)n(-c2ccccc2)n1C [RAMIFENAZONE] | 89.79% | 105.5%
41 | Cc1ccc2c(Cl)cc(Cl)c(O)c2n1 [CHLORQUINALDOL] | 88.49% | 98.6%
42 | OC[C@@H](O)[C@@H](O)[C@@H](O)CO [RIBITOL] | 94.42% | 81.13%
43 | C[C@@]12C[C@@]3(O)O[C@@H](O1)[C@]1(COC(=O)c4ccccc4)[C@H]3C[C@@]12O[C@@H]1O[C@H](CO)[C@@H](O)[C@H](O)[C@H]1O [PAEONIFLORIN] | 101.8% | 109.5%
44 | Nc1ccc(S(=O)(=O)Nc2ncccn2)cc1 [SULFADIAZINE] | 74.08% | 90.81%
45 | C#C[C@]1(O)CC[C@H]2[C@@H]3CCC4=C(CCC(=O)C4)[C@H]3CC[C@@]21C [NORETHYNODREL] | 124.5% | 64.52%
46 | O=C(NC(Cc1cc(=O)[nH]c2ccccc12)C(=O)O)c1ccc(Cl)cc1 (configuration not stated) [REBAMIPIDE] | 109.2% | 97.98%
